{
  "source": "patent US20260248924A1",
  "about": "“MITOCHONDRIA-TARGETED AGENTS FOR DISEASE PREVENTION AND TREATMENT” (THE METHODIST HOSPITAL, priority 2023, published 2026)",
  "key": {"[1]": {"system": "B(a)P-induced lung tumors", "experiment": "B(a)P-induced lung tumorigenesis, post-initiation model", "format": "in vivo, A/J mice", "conditions": "100 μmol/kg, 5 days/week, 20 weeks"}, "[2]": {"conditions": "in vivo; cited from earlier work"}, "VC-induced lung tumors": {"system": "VC-induced lung tumors", "experiment": "VC-induced lung tumorigenesis study", "format": "in vivo, A/J mice", "conditions": "100 μmol/kg, oral gavage 5 days/week for 20 weeks", "method": "Six-week-old female A/J mice were injected with VC (single i.p. dose, 16 mg/kg). […] Treatments were administered by oral gavage five times per week. After 18 weeks of treatment, the mice were euthanized. […] The rest of lungs were evaluated under a dissecting microscope to obtain the surface tumor count and individual tumor diameter. Tumor volume was calculated based on the formula V=4πr(3)/3. Tumor load (the total tumor volume in each mouse) was calculated from the sum of all tumors."}, "[3]": {"system": "lung tumorigenesis induced by benzo(a)pyrene", "conditions": "in vivo; cited from earlier work"}, "[4]": {"system": "lung adenocarcinoma (LUAD) cell lines (H2030-BrM3, LKR-13)", "experiment": "Cellular proliferation assay (IncuCyte cell confluence), PEITC vs Mito-PEITC", "format": "cell-based", "conditions": "Homo sapiens, real-time cell confluence, both LUAD cell lines tested, read-out: IC50, inhibition of proliferation"}, "[5]": {"conditions": "human, in vivo; cited from earlier work"}, "H2030-BrM3 cells [6]": {"system": "H2030-BrM3 cells", "experiment": "Lung cancer brain metastasis model (left ventricle injection)", "format": "in vivo, NOD/SCID mice", "conditions": "PEITC at 25-fold higher dose (printed 100 mol/kg), oral gavage", "method": "Mice were imaged for luciferase expression as a marker of tumor growth, using an IVIS 100 imaging system, over five weeks after cell injection. Regions of interest were defined manually, and LivingImage and Igor software was used to determine total photon flux.\nFor the brain metastasis studies, female NOD/SCID mice (age 5 weeks) were used. H2030-BrM3 cells (2×10^5) were suspended in PBS (0.1 mL) and injected into the left ventricle under ultrasound guidance (ECHO 707, GE, Milwaukee, WI). […] Mice were treated by oral gavage 5 days per week and metastases were monitored periodically by bioluminescence. Mice were euthanized at day 28 after the arterial injection of tumor cells."}, "[7]": {"conditions": "rat, in vivo; cited from earlier work"}, "H2030-BrM3 cells [8]": {"system": "H2030-BrM3 cells", "experiment": "Orthotopic model of lung adenocarcinoma", "format": "in vivo, nude mice", "conditions": "4 μmol/kg, oral gavage 5 days/week for 3 weeks", "protocol": "An orthotopic model of lung adenocarcinoma cells (H2030-BrM3 cells) in athymic nude mice was used. Nude mice (5 weeks old) were anesthetized with isoflurane and placed in the right lateral decubitus position. A total of 1×10^6 H2030-BrM3 cells in […] of growth factor reduced Matrigel in 50 μL of RPMI1640 medium were injected into the left lung through the left rib cage. […] Tumor growth and metastases were monitored over time by bioluminescence (after injection of D-luciferin, 150 μg/g) using Lumina IVIS 100 imager (Perkin Elmer, Waltham, MA). Mice were euthanized on day 28.\nA study using an orthotopic model of lung adenocarcinoma in nude mice was conducted. H2030-BrM3 cells were injected into the lung. […] PEITC was not effective, as expected, because the applied dose (4 μmol/kg) is below the levels typically used in xenograft studies (Zhang, Q., et al., Mol Carcinog, 2020. 59(6): p. 590-603)."}},
  "note": "Entries after “also recorded” stand apart in the source; their conditions may differ.",
  "data": [
    {"smiles": "S=C=NCCc1ccccc1", "note": "[PEITC, phenethyl isothiocyanate]", "values": [
      {"measurement": "B(a)P-induced lung tumor development", "setting": "[1]", "result": "ineffective"},
      {"measurement": "blood-brain barrier passage", "setting": "[2]", "result": "crosses the blood-brain barrier"},
      {"measurement": "plasma protein binding", "setting": "[2]", "result": "high"},
      {"measurement": "VC-induced lung tumor development", "setting": "VC-induced lung tumors", "result": "ineffective"},
      {"measurement": "efficacy against lung tumorigenesis induced by benzo(a)pyrene", "setting": "[3]", "result": "not effective"},
      {"measurement": "IC50", "setting": "[4]", "result": 12, "unit": "µM"},
      {"measurement": "safety in clinical trial", "setting": "[5]", "result": "safe"},
      {"measurement": "effect on lung cancer brain metastasis", "setting": "H2030-BrM3 cells [6]", "result": "ineffective; also recorded: does not inhibit brain metastasis"},
      {"measurement": "toxicity for female rats", "setting": "[7]", "result": "extremely low toxicity"},
      {"measurement": "effect on orthotopic lung tumor growth", "setting": "H2030-BrM3 cells [8]", "result": "not effective"}
    ]}
  ]
}
